Laboratory results taken from US20230099696A1, “NANO-COMPOSITE MICROPARTICLES OF POLYMYXIN” (Purdue Research Foundation, priority 2020, published 2023).

Tests used:
[1] = system: Pseudomonas aeruginosa (PA); conditions: when combined with polymyxin B; cited from earlier work
[2] = Crystallinity by powder X-ray diffraction (PXRD); assay type: physicochemical; conditions: state of Iva, FIG. 1B, 3A, 3B
Description: Crystalline state of the optimal Iva-BSA-NPs and the physical mixture (PM) of BSA and Iva were characterized by the powder X-ray diffraction (PXRD, SmartLabTM diffractometer, Rigaku Americas, Austin, USA) with Cu-Kα radiation source, operating at 40 kV and 44 mA . The scanning 2θ range was set as 5 to 60° with a scanning rate of 5°/min ([…] et al., 2018a). Crystalline state of co-delivery microparticles and the PM of BSA, Iva, Col and L-leucine were characterized by PXRD with the similar method as to detect the optimal nanoparticles.

[3] = system: Staphylococcus aureus (SA); conditions: against SA; cited from earlier work

SMILES: CC(C)(C)c1cc(C(C)(C)C)c(NC(=O)c2c[nH]c3ccccc3c2=O)cc1O [Iva, Ivacaftor]
- antimicrobial activity against PA [1]: significant antimicrobial activity
- crystalline state (PXRD) [2]: crystalline
- MIC [3]: 8~32 mg/L
